pIC50: −log10 of the molar value.
Key:
Mus musculus [1] = species: Mus musculus; assay: Toxic dose in L1210 lymphoid leukemic mice; format: toxicity, organism-based; conditions: in vivo
Mus musculus [2] = species: Mus musculus; assay: Percent median survival time of treated leukemic mice compared to control; format: functional
Mus musculus [3] = assay: Highest active dose in L1210 lymphoid leukemic mice at dose range of 2-4 mg/kg; format: functional
Mus musculus [4] = species: Mus musculus; assay: Number of L1210 lymphoid leukemic mice cured out of […]; format: functional
Mus musculus [5] = assay: Relative survival in L1210 lymphoid leukemic mice after subcutaneous administration on days 1,4,6,8 at dose of 3 mg/kg; format: functional
[6] = Number of metastases in K1735-M2 murine melanoma cells after subcutaneous administration on days1,4,6,8 at dose of 3 mg/kg; format: functional, Mus musculus
Mus musculus [7] = assay: Relative survival in RAW117-H10 cells implanted mice in comparison to control at dose of 3 mg/kg; format: functional
L1210 [8] = assay: Log of initial tumor cell population minus log of tumor cell population at end of treatment in L1210 lymphoid leukemic mice; format: functional, Mus musculus
Mus musculus [9] = assay: Highest active dose in L1210 lymphoid leukemic mice at dose of 2-4.5 mg/kg; format: functional
DNA topoisomerase 1 [10] = biological target: T1, DNA topoisomerase 1 (Homo sapiens, UniProt P11387); assay: Inhibition of Topoisomerase I by cleavage complex formation in human HL-60 cells; format: cell-based
T1 sequence (P11387 whole entry): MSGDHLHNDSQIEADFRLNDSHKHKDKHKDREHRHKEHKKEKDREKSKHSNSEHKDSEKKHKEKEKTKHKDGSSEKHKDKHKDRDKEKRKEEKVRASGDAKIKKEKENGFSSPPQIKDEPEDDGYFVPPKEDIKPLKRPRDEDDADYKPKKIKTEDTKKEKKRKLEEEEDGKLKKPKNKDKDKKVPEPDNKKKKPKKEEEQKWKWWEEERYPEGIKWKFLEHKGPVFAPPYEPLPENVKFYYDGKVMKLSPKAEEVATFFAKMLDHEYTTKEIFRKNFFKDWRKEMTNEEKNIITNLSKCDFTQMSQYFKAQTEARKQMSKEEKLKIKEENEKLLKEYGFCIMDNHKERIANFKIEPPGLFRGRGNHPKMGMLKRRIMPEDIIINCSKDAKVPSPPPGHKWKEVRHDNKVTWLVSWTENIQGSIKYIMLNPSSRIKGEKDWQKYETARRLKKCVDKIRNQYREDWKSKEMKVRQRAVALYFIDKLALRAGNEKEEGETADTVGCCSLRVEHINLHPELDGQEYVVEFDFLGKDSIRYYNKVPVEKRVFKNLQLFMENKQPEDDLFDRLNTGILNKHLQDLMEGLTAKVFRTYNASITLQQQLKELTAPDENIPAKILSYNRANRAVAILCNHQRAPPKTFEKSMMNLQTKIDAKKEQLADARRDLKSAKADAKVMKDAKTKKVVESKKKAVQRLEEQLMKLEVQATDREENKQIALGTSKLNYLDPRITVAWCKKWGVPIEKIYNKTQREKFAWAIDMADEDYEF

Mus musculus [11] = assay: Highest active dose in L1210 lymphoid leukemic mice at range of 1.35-3.74 mg/kg; format: functional
Mus musculus [12] = assay: Highest active dose in L1210 lymphoid leukemic mice at range of 10-80 mg/kg; format: functional
Mus musculus [13] = assay: Highest active dose in L1210 lymphoid leukemic mice at range of 1.25-20 mg/kg; format: functional
L1210 [14] = assay: Log of initial tumor cell population minus log of tumor cell population at end of treatment after i.v. drug dosing on hours 1 and 5; format: functional, Mus musculus
Mus musculus [15] = assay: Median survival time of treated/control L1210 leukemic mice after i.v. drug dosing on hours 1 and 5; format: functional
Mus musculus [16] = assay: Number of L1210 mice cured after i.v. drug dosing on hours 1 and 5; format: functional
Mus musculus [17] = assay: Highest active dose in L1210 lymphoid leukemic mice at dose range of 2.5-20 mg/kg after i.v. drug dosing on hours 1 and 5; format: functional
Mus musculus [18] = assay: Toxic dose in L1210 lymphoid leukemic mice at dose of 20 mg/kg after i.v. drug dosing on hours 1 and 5; NT means not toxic; format: toxicity, organism-based; parameters: dose 20 mg/kg, route intravenous; conditions: in vivo, iv
Mus musculus [19] = assay: Median survival time of treated/control animals x 100 after i.v. drug dosing on hours 1 and 5; format: functional
L1210 [20] = assay: Toxic dose in L1210 murine lymphoid leukemia at dose of 20 mg/kg after i.v. drug dosing on hours 1 and 5; NT means not toxic; format: toxicity, organism-based; parameters: dose 20 mg/kg, route intravenous; conditions: mouse, in vivo, iv
DNA topoisomerase 1 [21] = biological target: T1, DNA topoisomerase 1; assay: Inhibition of Topoisomerase I by cleavage complex formation in intact human HL-60 cells; format: cell-based
Mus musculus [22] = assay: Highest active dose in L1210 lymphoid leukemic mice after i.v. drug dosing on hours 1 and 5 at dose range of 1.25-20 mg/kg; format: functional
Mus musculus [23] = assay: Highest active dose in L1210 lymphoid leukemic mice at dose range of 2.37-12.00 mg/kg; format: functional
Mus musculus [24] = assay: Highest active dose in L1210 lymphoid leukemic mice at range of 3.63-15.5 mg/kg; format: functional
Mus musculus [25] = species: Mus musculus; assay: Toxic dose to L1210 lymphoid leukemic mice; format: toxicity, organism-based; conditions: in vivo
Mus musculus [26] = assay: Highest active dose in L1210 lymphoid leukemic mice at range of 5-20 mg/kg; format: functional
Mus musculus [27] = assay: Highest active dose in L1210 lymphoid leukemic mice at dose of 5.3-12 mg/kg; format: functional
Mus musculus [28] = assay: Highest active dose in L1210 lymphoid leukemic mice at dose range of 10-40 mg/kg; format: functional
L1210 [29] = assay: Toxic dose in L1210 murine lymphoid leukemia after i.v. drug dosing on hours 1 and 5; NT means not toxic at 20 mg/kg; format: toxicity, organism-based; parameters: dose 20 mg/kg, route intravenous; conditions: mouse, in vivo, iv
[30] = Number of metastases in K1735-M2 murine melanoma cells after subcutaneous administration on days1,4,6,8 at dose of 6 mg/kg; format: functional, Mus musculus
Mus musculus [31] = assay: Relative survival in L1210 lymphoid leukemic mice after subcutaneous administration on days1,4,6,8 at dose of 6 mg/kg; format: functional
Mus musculus [32] = assay: Relative survival in RAW117-H10 cells implanted mice in comparison to control at dose of 6 mg/kg; format: functional
Mus musculus [33] = assay: Relative survival in RAW117-H10 cells implanted mice in comparison to control at dose of 3.5 mg/kg; format: functional
Mus musculus [34] = assay: Relative survival in L1210 lymphoid leukemic mice after subcutaneous administration on days 1,4,6,8 at dose of 3.5 mg/kg; format: functional
HT-29 [35] = assay: Tumor volume in HT-29 cells after subcutaneous administration on days 16,20,23,27,30,34,37,41,44,48 at dose of 3.5 mg/kg; format: functional, Homo sapiens
[36] = Number of metastases in K1735-M2 murine melanoma cells after subcutaneous administration on days1,4,6,8 at dose of 3.5 mg/kg; format: functional, Mus musculus
HT-29 [37] = assay: Tumor volume in HT-29 cells after subcutaneous administration on days 16,20,23,27,30,34,37,41,44,48 at dose of 1.5 mg/kg; format: functional, Homo sapiens
Mus musculus [38] = assay: Relative survival in L1210 lymphoid leukemic mice after subcutaneous administration on days1,4,6,8 at dose of 1.5 mg/kg; format: functional
[39] = Number of metastases in K1735-M2 murine melanoma cells after subcutaneous administration on days1,4,6,8 at dose of 1.5 mg/kg; format: functional, Mus musculus
Mus musculus [40] = assay: Highest active dose in L1210 lymphoid leukemic mice at dose range of 0.3-1.5 mg/kg; format: functional
Mus musculus [41] = assay: Relative survival in RAW117-H10 cells implanted mice in comparison to control at dose of 1.5 mg/kg; format: functional

SMILES	Toxic dose (Mus musculus [1]) [mg/kg]	T/C (Mus musculus [2]) [%]	Cures (Mus musculus [4])	KE (L1210 [8])	pIC50 (DNA topoisomerase 1 [10])	also measured
CCC1(O)C(=O)OCc2c1cc1n(c2=O)Cc2cc3cc4c(cc3nc2-1)OCO4 (racemic)	8	325	2	5.97		Highest active dose (Mus musculus [3]): 2 mg/kg; T/C (Mus musculus [5]): 1.22; Control [6]: 65%; T/C (Mus musculus [7]): 1.04
CC[C@@]1(O)C(=O)OCc2c1cc1n(c2=O)Cc2cc3cc(N)ccc3nc2-1		565	6	>5.99	6.85	Highest active dose (Mus musculus [9]): 4.5 mg/kg
CCC1(O)C(=O)OCc2c1cc1n(c2=O)Cc2cc3cc(N)ccc3nc2-1 (racemic)	6.25	365	3	5.97		Highest active dose (Mus musculus [11]): 3.75 mg/kg
CCC1(O)C(=O)OCc2c1cc1n(c2=O)Cc2cc3cc(C)ccc3nc2-1 (racemic)		207	0	4.66		Highest active dose (Mus musculus [12]): 10 mg/kg
CCC1(O)C(=O)OCc2c1cc1n(c2=O)Cc2cc3c([N+](=O)[O-])cccc3nc2-1 (centres undefined)	40	348	5	5.97		Highest active dose (Mus musculus [13]): 10 mg/kg
CCC(O)(C(=O)[O-])c1cc2n(c(=O)c1CO)Cc1cc3cc([O-])ccc3nc1-2.[Na+].[Na+] (centres undefined)					5.49	KE (L1210 [14]): 3.24; T/C (Mus musculus [15]): 184%; Cures (Mus musculus [16]): 0; Highest active dose (Mus musculus [17]): 20 mg/kg; Toxic dose (Mus musculus [18]): Non-toxic
CCC1(O)C(=O)OCc2c1cc1n(c2=O)Cc2cc3c(NC(=O)CN)cccc3nc2-1.Cl (racemic)					6.24	KE (L1210 [14]): 2.95; Cures (Mus musculus [16]): 0; T/C (Mus musculus [19]): 180%; Toxic dose (L1210 [20]): Non-toxic; pIC50 (DNA topoisomerase 1 [21]): < 4.52; Highest active dose (Mus musculus [22]): 20 mg/kg
CC[C@@]1(O)C(=O)OCc2c1cc1n(c2=O)Cc2cc3c(Cl)cccc3nc2-1		150	0	0	7.07	Highest active dose (Mus musculus [23]): 12 mg/kg
CCC1(O)C(=O)OCc2c1cc1n(c2=O)Cc2cc3cc([N+](=O)[O-])ccc3nc2-1 (racemic)	31	233	0	5.97		Highest active dose (Mus musculus [24]): 7.25 mg/kg
CCC1(O)C(=O)OCc2c1cc1n(c2=O)Cc2cc3cc(Cl)ccc3nc2-1 (racemic)		280	2	5.97		Toxic dose (Mus musculus [25]): 40 mg/kg; Highest active dose (Mus musculus [26]): 10 mg/kg
CC[C@@]1(O)C(=O)OCc2c1cc1n(c2=O)Cc2cc3ccccc3nc2-1 [CAMPTOTHECIN]	10	250	1	4.8		Highest active dose (Mus musculus [27]): 12 mg/kg
CCC1(O)C(=O)OCc2c1cc1n(c2=O)Cc2cc3c(O)cccc3nc2-1 (racemic)		134	0		6.05	Highest active dose (Mus musculus [28]): 20 mg/kg
CCC1(OC(=O)CN)C(=O)OCc2c1cc1n(c2=O)Cc2cc3cc4c(cc3nc2-1)OCO4.Cl (racemic)		236			6.37	KE (L1210 [14]): 5.97; Toxic dose (L1210 [29]): Not toxic; Cures (Mus musculus [16]): 3; pIC50 (DNA topoisomerase 1 [21]): 5.60; Highest active dose (Mus musculus [22]): 10 mg/kg
CCC(O)(C(=O)[O-])c1cc2n(c(=O)c1CO)Cc1cc3c(N)c4c(cc3nc1-2)OCO4.[Na+] (racemic)					5.26	Control [30]: 98%; T/C (Mus musculus [31]): 1.78; T/C (Mus musculus [32]): 1.4
CC[C@@](O)(C(=O)[O-])c1cc2n(c(=O)c1CO)Cc1cc3c(N)c4c(cc3nc1-2)OCO4.[Na+]					5.37	T/C (Mus musculus [33]): 1.75; T/C (Mus musculus [34]): 2.56; Control (HT-29 [35]): 38%; Control [36]: 51%
CC[C@@]1(O)C(=O)OCc2c1cc1n(c2=O)Cc2cc3c(N)c4c(cc3nc2-1)OCO4		336	4	5.8	7.32	Control (HT-29 [37]): 17%; T/C (Mus musculus [38]): 1.98; Control [39]: 17%; Highest active dose (Mus musculus [40]): 1.5 mg/kg; T/C (Mus musculus [41]): 1.25

— ChEMBL document CHEMBL1126797 (J Med Chem, 1993)
